Experimental data: ChEMBL document CHEMBL5316299, “Discovery of Novel Drug-like PHGDH Inhibitors to Disrupt Serine Biosynthesis for Cancer Therapy” (J Med Chem, 2023); call rule not given here

Legend:
[1] = Toxicity in BALB/c nude mouse xenografted with human PC-9 cells assessed as loss of body weight at 25 mg/kg, ip administered every day for 31 days; assay type: organism-based; conditions: in vivo, 744 h, time 31 day
MDA-MB-231 = assay: Antiproliferative activity against human MDA-MB-231 cells assessed as reduction in cell viability measured for 72 hrs by CCK-8 assay; assay type: functional, cell-based; conditions: MDA-MB-231, 72 h
[2] = molecular target: T1, D-3-phosphoglycerate dehydrogenase (Homo sapiens, UniProt O43175); assay: Competitive inhibition of PHGDH (unknown origin) assessed as inhibition constant using NAD+ as substrate preincubated for 30 mins followed by substrate addition and measured after 5 mins by Lineweaver-Burk plot analysis
T1 sequence (O43175 whole entry): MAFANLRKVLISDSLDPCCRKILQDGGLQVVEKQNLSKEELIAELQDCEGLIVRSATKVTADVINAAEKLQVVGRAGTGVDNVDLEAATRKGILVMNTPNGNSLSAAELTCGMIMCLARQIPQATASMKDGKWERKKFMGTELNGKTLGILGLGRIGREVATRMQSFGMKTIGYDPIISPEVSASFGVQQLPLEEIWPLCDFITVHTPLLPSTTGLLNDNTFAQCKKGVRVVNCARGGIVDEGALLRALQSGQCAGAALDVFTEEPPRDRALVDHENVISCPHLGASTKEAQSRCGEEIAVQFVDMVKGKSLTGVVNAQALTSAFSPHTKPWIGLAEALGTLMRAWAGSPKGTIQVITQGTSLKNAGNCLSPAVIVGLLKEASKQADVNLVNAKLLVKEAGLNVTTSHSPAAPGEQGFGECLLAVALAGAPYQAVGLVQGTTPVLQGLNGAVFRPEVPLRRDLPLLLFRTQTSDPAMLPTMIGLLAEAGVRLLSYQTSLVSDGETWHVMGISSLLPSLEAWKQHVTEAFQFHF

[3] = Cmax in ICR mouse at 3 mg/kg, po measured for 0.25 to 24 hrs by UPLC-MS/MS analysis; assay type: ADME, organism-based; design: dose 3 mg/kg, time 0.25-24 hrs, route po; conditions: in vivo
[4] = Toxicity in BALB/c nude mouse xenografted with human PC-9 cells assessed as abnormalities in liver at 25 mg/kg, ip administered every day for 31 days by H and E staining based assay; assay type: organism-based; conditions: in vivo, 744 h, time 31 day
[5] = Microsomal stability in human liver microsomes assessed as intrinsic clearance measured upto 60 mins by HPLC-MS/MS analysis; assay type: ADME, Microsome; conditions: 1 h
ZR-75-1 = assay: Antiproliferative activity against human ZR-75-1 cells assessed as reduction in cell viability measured for 72 hrs by CCK-8 assay; assay type: functional, cell-based; conditions: ZR-75-1, 72 h
PC-9 [6] = assay: Antitumor activity against human PC-9 cells xenografted in BALB/c nude mouse assessed as tumor growth inhibition at 25 mg/kg, ip administered every day for 31 days by digital vernier caliper analysis; assay type: functional; conditions: time 31 day
NCI-H23 = assay: Antiproliferative activity against human NCI-H23 cells assessed as reduction in cell viability measured for 72 hrs by CCK-8 assay; assay type: functional, cell-based; conditions: NCI-H23, 72 h
MDA-MB-468 = assay: Antiproliferative activity against human MDA-MB-468 cells expressing PHGDH assessed as reduction in cell viability measured for 72 hrs by CCK-8 assay; assay type: functional, cell-based; conditions: MDA-MB-468, 72 h
[7] = molecular target: T1, D-3-phosphoglycerate dehydrogenase; assay: Binding affinity to his-tagged PHGDH ([…] residues) (unknown origin) assessed as dissociation constant by SPR analysis
PANC-1 = assay: Antiproliferative activity against human PANC-1 cells assessed as reduction in cell viability measured for 72 hrs by CCK-8 assay; assay type: functional, cell-based; conditions: PANC-1, 72 h
[8] = AUClast in ICR mouse at 3 mg/kg, po measured for 0.25 to 24 hrs by UPLC-MS/MS analysis; assay type: ADME, organism-based; design: dose 3 mg/kg, time 0.25-24 hrs, route po; conditions: in vivo
[9] = Microsomal stability in rat liver microsomes assessed as half life measured upto 60 mins by HPLC-MS/MS analysis; assay type: ADME, Microsome
[10] = AUClast in ICR mouse at 1 mg/kg, iv measured for 0.05 to 24 hrs by UPLC-MS/MS analysis; assay type: ADME, organism-based; design: time upper 24 hrs, dose 1 mg/kg, time lower 0.05 hrs, route iv; conditions: in vivo
[11] = Tmax in ICR mouse at 3 mg/kg, po measured for 0.25 to 24 hrs by UPLC-MS/MS analysis; assay type: ADME, organism-based; conditions: in vivo, time 0.25-24 hrs
HCC827 = assay: Antiproliferative activity against human HCC827 cells expressing PHGDH assessed as reduction in cell viability measured for 72 hrs by CCK-8 assay; assay type: functional, cell-based; conditions: HCC827, 72 h
BT-20 = assay: Antiproliferative activity against human BT-20 cells expressing PHGDH assessed as reduction in cell viability measured for 72 hrs by CCK-8 assay; assay type: functional, cell-based; conditions: BT-20, 72 h
[12] = Half life in ICR mouse at 1 mg/kg, iv measured for 0.05 to 24 hrs by UPLC-MS/MS analysis; assay type: ADME, organism-based; conditions: in vivo, time 0.05-24 hrs
[13] = Drug exposure in BALB/c nude mouse tumor at 50 mg/kg, ip measured for 0.5 to 4 hrs; assay type: ADME, organism-based; conditions: in vivo, time 0.5-4 hrs
[14] = molecular target: T1, D-3-phosphoglycerate dehydrogenase; assay: Inhibition of PHGDH (unknown origin) preincubated for 30 mins followed by substrate addition and measured after 5 mins
[15] = Oral bioavailability in ICR mouse at 3 mg/kg measured for 0.25 to 24 hrs by UPLC-MS/MS analysis; assay type: ADME, organism-based; conditions: in vivo, time 0.25-24 hrs
[16] = molecular target: T1, D-3-phosphoglycerate dehydrogenase; assay: Binding affinity to PHGDH (unknown origin) assessed as dissociation constant incubated for 60 mins by microscale thermophoresis analysis
MCF-10A = assay: Antiproliferative activity against human MCF-10A cells assessed as reduction in cell viability measured for 72 hrs by CCK-8 assay; assay type: functional, cell-based
[17] = Toxicity in BALB/c nude mouse xenografted with human PC-9 cells assessed as abnormalities in lung at 25 mg/kg, ip administered every day for 31 days by H and E staining based assay; assay type: organism-based; conditions: in vivo, 744 h, time 31 day
[18] = Half life in ICR mouse at 3 mg/kg, po measured for 0.25 to 24 hrs by UPLC-MS/MS analysis; assay type: ADME, organism-based; conditions: in vivo, time 0.25-24 hrs
[19] = molecular target: T1, D-3-phosphoglycerate dehydrogenase; assay: Inhibition of wild type PHGDH (unknown origin) preincubated for 30 mins followed by substrate addition and measured after 5 mins
[20] = molecular target: T1, D-3-phosphoglycerate dehydrogenase; assay: Competitive inhibition of PHGDH (unknown origin) assessed as inhibition constant using 3-PG as substrate preincubated for 30 mins followed by substrate addition and measured after 5 mins by Lineweaver-Burk plot analysis
[21] = Microsomal stability in rat liver microsomes assessed as intrinsic clearance measured upto 60 mins by HPLC-MS/MS analysis; assay type: ADME, Microsome; conditions: 1 h
[22] = molecular target: D-3-phosphoglycerate dehydrogenase (Homo sapiens, UniProt O43175, D175A); assay: Inhibition of PHGDH D175A mutant (unknown origin) preincubated for 30 mins followed by substrate addition and measured after 5 mins
[23] = Observed clearance in ICR mouse at 1 mg/kg, iv measured for 0.05 to 24 hrs by UPLC-MS/MS analysis; assay type: ADME, organism-based; conditions: in vivo, time 0.05-24 hrs
HCT-116 = assay: Antiproliferative activity against human HCT-116 cells expressing PHGDH assessed as reduction in cell viability measured for 72 hrs by CCK-8 assay; assay type: functional, cell-based; conditions: HCT-116, 72 h
NCI-H1975 = assay: Antiproliferative activity against human NCI-H1975 cells expressing PHGDH assessed as reduction in cell viability measured for 72 hrs by CCK-8 assay; assay type: functional, cell-based; conditions: NCI-H1975, 72 h
[24] = Microsomal stability in mouse liver microsomes assessed as half life measured upto 60 mins by HPLC-MS/MS analysis; assay type: ADME, Microsome
[25] = Microsomal stability in mouse liver microsomes assessed as intrinsic clearance measured upto 60 mins by HPLC-MS/MS analysis; assay type: ADME, Microsome; conditions: 1 h
[26] = Toxicity in BALB/c nude mouse xenografted with human PC-9 cells assessed as abnormalities in kidney at 25 mg/kg, ip administered every day for 31 days by H and E staining based assay; assay type: organism-based; conditions: in vivo, 744 h, time 31 day
MCF7 = assay: Antiproliferative activity against human MCF7 cells assessed as reduction in cell viability measured for 72 hrs by CCK-8 assay; assay type: functional, cell-based; conditions: MCF7, 72 h
PC-9 [27] = assay: Antiproliferative activity against human PC-9 cells expressing PHGDH assessed as reduction in cell viability measured for 72 hrs by CCK-8 assay; assay type: functional, cell-based; conditions: PC-9, 72 h
[28] = Drug exposure in BALB/c nude mouse plasma at 25 mg/kg, ip measured for 0.5 to 4 hrs; assay type: ADME, organism-based; conditions: in vivo, time 0.5-4 hrs
PC-9 [29] = assay: Antitumor activity against human PC-9 cells xenografted in BALB/c nude mouse assessed as tumor growth inhibition at 12.5 mg/kg, ip administered every day for 31 days by digital vernier caliper analysis; assay type: functional; conditions: time 31 day
[30] = Microsomal stability in human liver microsomes assessed as half life measured upto 60 mins by HPLC-MS/MS analysis; assay type: ADME, Microsome
[31] = substrate: CC(=O)c1cccc(NS(=O)(=O)c2ccc(C(=O)Nc3nc(-c4cccc(F)c4)cs3)cc2)c1; conditions: Homo sapiens; dose 12.5 µM, time 35.0 min
[32] = substrate: CC(=O)c1cccc(NS(=O)(=O)c2ccc(C(=O)Nc3nc(-c4cccc(F)c4)cs3)cc2)c1; conditions: Homo sapiens; dose 6.3 µM, time 35.0 min
[33] = substrate: CC(=O)c1cccc(NS(=O)(=O)c2ccc(C(=O)Nc3nc(-c4cccc(F)c4)cs3)cc2)c1; conditions: Homo sapiens; dose 3.1 µM, time 35.0 min
[34] = substrate: CC(=O)c1cccc(NS(=O)(=O)c2ccc(C(=O)Nc3nc(-c4cccc(F)c4)cs3)cc2)c1; conditions: Homo sapiens; dose 25.0 µM, time 35.0 min
[35] = substrate: CC(=O)c1cccc(NS(=O)(=O)c2ccc(C(=O)Nc3nc(-c4cccc(F)c4)cs3)cc2)c1; conditions: Homo sapiens; dose 6.3 µM, time 35.0 min; remark: listed apart in the source
[36] = substrate: CC(=O)c1cccc(NS(=O)(=O)c2ccc(C(=O)Nc3nc(-c4cccc(F)c4)cs3)cc2)c1; conditions: Homo sapiens; dose 25.0 µM, time 35.0 min; remark: listed apart in the source
[37] = substrate: CC(=O)c1cccc(NS(=O)(=O)c2ccc(C(=O)Nc3nc(-c4cccc(F)c4)cs3)cc2)c1; conditions: Homo sapiens; dose 12.5 µM, time 35.0 min; remark: listed apart in the source

Chain of D-3-phosphoglycerate dehydrogenase (Homo sapiens, UniProt O43175, D175A) (O43175 2-533 D175A limits assumed): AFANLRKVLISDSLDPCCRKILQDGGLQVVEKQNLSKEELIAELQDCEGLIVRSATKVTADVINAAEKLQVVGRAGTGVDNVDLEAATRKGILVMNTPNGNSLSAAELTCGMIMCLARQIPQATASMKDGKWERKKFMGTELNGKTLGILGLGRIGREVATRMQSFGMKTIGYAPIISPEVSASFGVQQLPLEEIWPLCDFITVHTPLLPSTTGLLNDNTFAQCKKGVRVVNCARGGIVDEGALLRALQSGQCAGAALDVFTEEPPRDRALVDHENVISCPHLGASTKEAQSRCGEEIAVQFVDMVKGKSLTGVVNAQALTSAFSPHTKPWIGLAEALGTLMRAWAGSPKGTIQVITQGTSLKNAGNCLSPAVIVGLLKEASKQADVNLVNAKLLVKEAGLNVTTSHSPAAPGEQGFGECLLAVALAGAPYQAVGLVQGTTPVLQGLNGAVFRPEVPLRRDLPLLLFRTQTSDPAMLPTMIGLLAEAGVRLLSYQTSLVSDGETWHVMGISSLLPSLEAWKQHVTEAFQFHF

Molecule: CC(=O)c1cccc(NS(=O)(=O)c2ccc(C(=O)Nc3nc(-c4cccc(F)c4)cs3)cc2)c1
- Activity [1]: Non-Toxic
- IC50 (MDA-MB-231): 37.1 µM
- Ki [2]: 15.2 µM
- Cmax [3]: 8840 ng/mL
- Activity [4]: Non-Toxic
- CLH [5]: 19.8 mL/min/g
- IC50 (ZR-75-1): 38.3 µM
- TGI (PC-9 [6]): 68.9%
- IC50 (NCI-H23): 28.6 µM
- IC50 (MDA-MB-468): 5.3 µM
- Kd [7]: 2.48 µM
- IC50 (PANC-1): 36.6 µM
- AUClast [8]: 94386 ng·mL·h
- half-life [9]: 0.618 h
- AUClast [10]: 38358 ng·mL·h
- Tmax [11]: 3.33 h
- IC50 (HCC827): 21.6 µM
- IC50 (BT-20): 5.3 µM
- half-life [12]: 4.94 h
- Drug uptake [13]: Active
- IC50 [14]: 2.8 µM
- bioavailability [15]: 82%
- Kd [16]: 2.33 µM
- IC50 (MCF-10A): 52.9 µM
- Activity [17]: Non-Toxic
- half-life [18]: 4.74 h
- IC50 [19]: 2.8 µM
- Ki [20]: 14.9 µM
- CLH [21]: 56.6 mL/min/g
- IC50 [22]: > 50 µM
- clearance [23]: 0.48 mL/min/kg
- IC50 (HCT-116): 9.6 µM
- IC50 (NCI-H1975): 6.2 µM
- half-life [24]: 1.45 h
- CLH [25]: 24.1 mL/min/g
- Activity [26]: Non-Toxic
- IC50 (MCF7): 39.2 µM
- IC50 (PC-9 [27]): 3.5 µM
- concentration [28]: 30.8 µM
- TGI (PC-9 [29]): 41.4%
- half-life [30]: 1.77 h

B1: D-3-phosphoglycerate dehydrogenase (Homo sapiens), O43175 (protein)
chain: T1 sequence (O43175 whole entry)
- Km [31]: 64 µM
- Km [32]: 51.6 µM
- Km [33]: 33.4 µM
- Km [34]: 448 µM
- Km [35]: 510 µM
- Km [36]: 72.9 µM
- Km [37]: 495 µM
